Test results published in BindingDB's records for doi:10.1016/s0960-894x(02)00831-4 (Currently Naeja Pharmaceutical, 2002).

Target: Cathepsin S (Homo sapiens, UniProt P25774)
Assay: Inhibition of recombinant human cathepsin S

Chain of Cathepsin S (P25774 whole entry): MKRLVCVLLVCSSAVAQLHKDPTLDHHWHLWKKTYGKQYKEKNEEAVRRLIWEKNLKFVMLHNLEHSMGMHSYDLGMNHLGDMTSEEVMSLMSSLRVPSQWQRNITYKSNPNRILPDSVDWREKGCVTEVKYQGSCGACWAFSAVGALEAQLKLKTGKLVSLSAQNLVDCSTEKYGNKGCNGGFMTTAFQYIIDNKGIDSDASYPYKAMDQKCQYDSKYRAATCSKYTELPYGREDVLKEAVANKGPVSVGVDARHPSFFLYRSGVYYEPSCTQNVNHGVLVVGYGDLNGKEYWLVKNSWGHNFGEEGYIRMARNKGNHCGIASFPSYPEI

O=C(N[C@@H](Cc1ccccc1)C(=O)N[C@@H]1C(=O)N[C@@H]1Oc1ccccc1)OCc1ccccc1 [[(S)-1-((3S,4R)-2-Oxo-4-phenoxy-azetidin-3-ylcarbamoyl)-2-phenyl-ethyl]-carbamic acid benzyl ester]
IC50: < 100 pM
